From the NIST ThermoML archive (doi:10.1016/j.fluid.2017.09.007)
Numbers after ± are expanded uncertainties.

Tests used:
[1] = Crystal; DTA
[2] = Molar enthalpy of transition or fusion; conditions: Crystal; DSC

- Normal melting temperature [1]: 221.60 ± 1.1 °C
- Molar enthalpy of transition or fusion [2]: 9.15 ± 0.311 kcal/mol
Compound: C[C@]12CCC(=O)C=C1CC[C@@H]1[C@@H]2[C@@H](O)C[C@@]2(C)[C@H]1CC[C@]2(O)C(=O)CO [11β,17α,21-trihydroxypregn-4-ene-3,20-dione]
